Laboratory results as given in ChEMBL document CHEMBL4390689 (Bioorg Med Chem Lett, 2019).
Calls of active or inactive are those of the source. The calls are words filed in the database; no cut-off is given here.

Experiments:
[1] = system: L1210; assay: Growth inhibition of mouse L1210 cells measured after 72 hrs by phosphatase assay; format: functional, cell-based; conditions: L1210, 72 h
[2] = system: HCT-116; assay: Growth inhibition of human HCT116 cells measured after 72 hrs by phosphatase assay; format: functional, cell-based; conditions: HCT-116, 72 h
[3] = molecular target: Tubulin (Sus scrofa) (UniProt P02554+P02550); assay: Competitive displacement of BODIPY-VBL from porcine brain tubulin at 1.8 uM in presence of GTP by fluorescence method relative to control
[4] = species on record: Bos taurus; assay: Inhibition of bovine microtubule polymerization at 143 pM and measured upto 5000 sec by tubulin polymerisation assay
[5] = system: HCT-116/VM46; assay: Growth inhibition of human HCT116/VM46 cells measured after 72 hrs by phosphatase assay; format: functional, cell-based; conditions: HCT-116/VM46, 72 h
[6] = species on record: Bos taurus; assay: Inhibition of bovine microtubule polymerization at 143 nM and measured upto 5000 sec by tubulin polymerisation assay
[7] = species on record: Sus scrofa; assay: Inhibition of paclitaxel-induced porcine brain microtubule polymerization at 2 uM measured upto 30 mins by UV spectrophotometric method
[8] = species on record: Sus scrofa; assay: Inhibition of GMPCPP-induced porcine brain microtubule polymerization at 2 uM under 4 degreeC measured upto 30 mins by UV spectrophotometric method
[9] = species on record: Sus scrofa; assay: Inhibition of paclitaxel-induced porcine brain microtubule polymerization at 2 uM under 4 degreeC measured upto 30 mins by UV spectrophotometric method
[10] = species on record: Sus scrofa; assay: Inhibition of GMPCPP-induced porcine brain microtubule polymerization at 2 uM measured upto 30 mins by UV spectrophotometric method
[11] = species on record: Sus scrofa; assay: Effect on GMPCPP-induced porcine brain microtubule polymerization assessed as catalytic depolymerisation of microtubulin at 2 uM measured upto 30 mins by UV spectrophotometric method
[12] = system: HeLa; assay: Potency index, ratio of vinblastine effect to compound effect for Induction of mitotic arrest in human HeLa cells after 24 hrs by immunofluorescence based confocal microscopy relative to control; format: functional
[13] = molecular target: T1, Tubulin (Homo sapiens) (UniProt P68371+Q9H4B7+P0DPH7+P68366+Q13509+Q71U36+P04350+Q3ZCM7+P07437+P68363+Q9BQE3+Q6PEY2+Q13885+Q9BVA1+Q9BUF5); assay: Induction of microtubule disposition in human HeLa cells assessed as appearance of clumps of tubulin without […] at 500 pM incubated for 20 hrs measured by immunofluorescence method; format: cell-based
[14] = molecular target: T1, Tubulin (Homo sapiens); assay: Inhibition of human GFP tagged tubulin expressed in human HeLa cells assessed as suppression of microtubule dynamics at 500 nM after 5 hrs by TIRF super resolution microscopy; format: cell-based
[15] = system: HeLa; assay: Induction of mitotic arrest in human HeLa cells after 24 hrs by immunofluorescence based confocal microscopy relative to vinblastine; format: functional
[16] = system: HeLa; assay: Induction of microtubule disposition in human HeLa cells assessed as detection of gamma tubulin isoform at 500 nM for 20 hrs measured by immunofluorescence method; format: cell-based
[17] = molecular target: Tubulin beta (Homo sapiens) (UniProt P68371+Q9H4B7+Q13509+P04350+Q3ZCM7+P07437+Q13885+Q9BVA1+Q9BUF5+A6NNZ2); assay: Induction of microtubule disposition in human HeLa cells assessed as detection of beta tubulin isoform at 500 nM for 20 hrs measured by immunofluorescence method; format: cell-based
[18] = molecular target: T1, Tubulin (Homo sapiens); assay: Inhibition of global microtubule skeleton in human HeLa cells assessed as catastrophic effect on global microtubule skeleton at 75 pM incubated for 20 hrs by Hoechst/[…] staining based confocal microscopy; format: cell-based
[19] = molecular target: T1, Tubulin (Homo sapiens); assay: Induction of microtubule disposition in human HeLa cells assessed as appearance of multiple clumps of tubulin at 500 pM for 20 hrs measured by immunofluorescence method; format: cell-based
[20] = species on record: Bos taurus; assay: Inhibition of bovine microtubule polymerization at 143 uM and measured upto 5000 sec by tubulin polymerisation assay
[21] = system: HeLa; assay: Growth inhibition of human HeLa cells measured after 72 hrs by phosphatase assay; format: functional, cell-based
[22] = molecular target: T1, Tubulin (Homo sapiens); assay: Inhibition of GFP tagged human tubulin expressed in human HeLa cells assessed as increase in the ratio of short versus medium and long microtubules after 5 hrs by TIRF super resolution microscopy; format: cell-based
[23] = molecular target: T2, Tubulin alpha (Homo sapiens) (UniProt P0DPH7+P68366+Q71U36+P68363+Q9BQE3+Q6PEY2+A6NHL2+Q9NY65); assay: Induction of microtubule disposition in human HeLa cells assessed as detection of alpha tubulin isoform at 500 nM for 20 hrs measured by immunofluorescence method; format: cell-based
[24] = system: HeLa; assay: Induction of mitotic arrest in human HeLa cells after 24 hrs by immunofluorescence based confocal microscopy relative to control; format: functional, cell-based
[25] = molecular target: T2, Tubulin alpha (Homo sapiens); assay: Induction of microtubule disposition in human HeLa cells assessed as detection of alpha tubulin isoform at 10 nM for 20 hrs measured by immunofluorescence method; format: cell-based
[26] = system: HeLa; assay: Induction of microtubule disposition in human HeLa cells assessed as detection of gamma tubulin isoform at 10 nM for 20 hrs measured by immunofluorescence method; format: cell-based

| IC50 [1] [nM] | IC50 [2] [nM] | Activity [3] [%] | inhibition [4] | IC50 [5] [nM] | inhibition [6] | inhibition [7] | inhibition [8] | inhibition [9] | inhibition [10] | Activity [11] | inhibition [20] | IC50 [21] [nM] | SMILES | Activity [24] | also measured |
| --- | --- | --- | --- | --- | --- | --- | --- | --- | --- | --- | --- | --- | --- | --- | --- |
| 0.062 | 0.074 | 104 | inactive | 0.88 | inactive | inactive | Active | Active | inactive | inactive |  |  | CC[C@]1(NC(=O)N2Cc3ccc(NC(=O)c4ccncn4)cc3C2)C[C@H]2CN(CCc3c([nH]c4ccccc34)[C@@](C(=O)OC)(c3cc4c(cc3OC)N(C)[C@H]3[C@@](O)(C(=O)OC)[C@H](OC(C)=O)[C@]5(CC)C=CCN6CC[C@]43[C@@H]65)C2)C1 |  |  |
| 0.059 | 0.075 | 105 | inactive | 0.83 | inactive | inactive | Active | Active | inactive | inactive | Active | 0.083 | CC[C@]1(NC(=O)N2Cc3ccc(NC(=O)c4cnccn4)cc3C2)C[C@H]2CN(CCc3c([nH]c4ccccc34)[C@@](C(=O)OC)(c3cc4c(cc3OC)N(C)[C@H]3[C@@](O)(C(=O)OC)[C@H](OC(C)=O)[C@]5(CC)C=CCN6CC[C@]43[C@@H]65)C2)C1 | Dose-dependent effect | Ratio [12]: 100; Activity [13]: Active; inhibition [14]: Active; fold change (FC) [15]: 100; Activity [16]: inactive; Activity [17]: Active; inhibition [18]: inactive; Activity [19]: Active; inhibition [22]: Active; Activity [23]: Active |

Further lines, the molecule ahead of its results:

| SMILES | IC50 [1] [nM] | IC50 [2] [nM] | Activity [3] [%] | inhibition [4] | IC50 [5] [nM] | inhibition [6] | inhibition [7] | inhibition [8] | inhibition [9] | inhibition [10] | Activity [11] | inhibition [20] | IC50 [21] [nM] | Activity [24] | also measured |
| --- | --- | --- | --- | --- | --- | --- | --- | --- | --- | --- | --- | --- | --- | --- | --- |
| CC[C@]1(NC(=O)N2Cc3ccc(NC(=O)c4cccnn4)cc3C2)C[C@H]2CN(CCc3c([nH]c4ccccc34)[C@@](C(=O)OC)(c3cc4c(cc3OC)N(C)[C@H]3[C@@](O)(C(=O)OC)[C@H](OC(C)=O)[C@]5(CC)C=CCN6CC[C@]43[C@@H]65)C2)C1 | 0.059 | 0.067 | 101 | inactive | 0.87 | inactive |  |  |  |  |  |  |  |  |  |
| CC[C@]1(O)C[C@@H]2CN(CCc3c([nH]c4ccccc34)[C@@](C(=O)OC)(c3cc4c(cc3OC)N(C)[C@H]3[C@@](O)(C(=O)OC)[C@H](OC(C)=O)[C@]5(CC)C=CCN6CC[C@]43[C@@H]65)C2)C1 [VINBLASTINE] |  |  | 31 |  |  |  |  |  |  |  |  | Active | 7.8 | Dose-dependent effect | Activity [25]: Active; Activity [26]: inactive |
| CC[C@]1(NC(=O)N2Cc3ccccc3C2)C[C@H]2CN(CCc3c([nH]c4ccccc34)[C@@](C(=O)OC)(c3cc4c(cc3OC)N(C)[C@H]3[C@@](O)(C(=O)OC)[C@H](OC(C)=O)[C@]5(CC)C=CCN6CC[C@]43[C@@H]65)C2)C1 |  |  | 49 |  |  |  |  |  |  |  |  |  |  |  |  |
